According to patent US20230020329A1, “Annelated 9-hydroxy-1,8-dioxo-1,3,4,8-tetrahydro-2H-pyrido[1,2-a]pyrazine-7-carboxamides as HIV integrase inhibitors, methods of preparation and application thereof” (priority 2019, published 2023):
Converted amounts (≈) assume the structure as drawn. Where two headings read alike, the source gives them in different places.

How the values were obtained:
[1] = test system: HIV; details: read-out: EC50 in WO 2014/100323; cited from earlier work
[2] = test system: HIV; details: depending on the method of analysis; read-out: Inhibitory activity EC50 (literature); cited from earlier work
[3] = Pharmacokinetics in rat plasma, IV and oral; assay type: in vivo, male Sprague-Dawley rats; details: for Cmax: read-out: Cmax; for Tmax: read-out: Tmax
Method: The research was carried out on male Sprague-Dawley rats obtained from Charles River Laboratories (Germany). […] The age of the animals at the time of administration was 8-10 weeks. The animals were pre-catheterized so that all blood samples during the study of each substance could be taken from the same animals. Each substance was tested in 3 animals at each route of administration. The solution of test substances with a concentration of 0.2 mg/ml in 10% DMSO/10% Solutol/80% 0.05M N-methylglucamine was administered to rats intravenously in the tail vein at a dose of 1 mg/kg. Blood samples were collected at 5, 15, 30 min, 1, 2, 4, 8, and 24 hours after administration. Intragastric administration involved gavage using a solution with a concentration of 0.5 mg/ml in 0.5% methylcellulose at a dose of 5 mg/kg. Blood samples were collected at 15, 30 min, 1, 2, 4, 8, and 24 hours after administration. Blood (0.2 ml) was collected in polypropylene tubes containing 20 μl of 5% NaEDTA. Blood plasma was separated by centrifugation at 1500×g for 10 min and stored until testing at a temperature of −80° C. A pure acetonitrile-water (1:1) mixture (5 μl) was added to 45 μl of test samples. The samples were vortexed thoroughly for 10 seconds. Tolbutamide (100 μl) chilled to +4° C. (200 ng/ml in MeCN) was added to the samples and the mixture was vortexed. The samples were precipitated on ice at +4° C. for 15 minutes and then centrifuged at 2700 g for 10 min at +4° C. Supernatants (100 μl each) were transferred to a blank plate for HPLC/MS/MS analysis. The HPLC/MS/MS analysis was performed using an Agilent 1290 Infinity system coupled to an AB Sciex QTrap 6500 mass spectrometer. Pharmacokinetic analysis of plasma concentration vs time data was performed by a model-independent method using the Phoenix™ WinNonlin® 6.3 software (Pharsight Corp.). […]

[4] = Thermodynamic (shake-flask) solubility; assay type: physicochemical; details: for solubility at 24 h: thermodynamic from solid
Method: The test compound of general formula 1 or 2 (2 mg) was weighed into a glass vial. The pION universal buffer (0.5 ml) with pH 7.4 or deionized water was added to appropriate vials. The vials were tightly closed with a lid, placed on a rotating shaker, and incubated for 24 hours to balance the solution and the solid phase at the saturation point. Each resulting solution (200 μl) was taken (in duplicate) from the vials, placed in a 96-well MultiScreen Solubility Filter Plate (Millipore), and filtered using vacuum ([…]) into a polypropylene plate with a U-shaped bottom. If necessary, the filtrates were diluted with an appropriate buffer (water). Then, 120 μl of the filtarate (or a diluted filtrate) was transferred to a 96-well plate with a UV-transparent bottom and 60 μl/well of acetonitrile and 20 μl/well of DMSO were added and thoroughly mixed with a multichannel pipette (acetonitrile and DMSO were added to obtain a required composition of calibration standards, as described below). The optical density of the resulting solutions was measured on a multifunction Infinite 200 PRO plate reader in the wavelength range from 240 nm to 400 nm in steps of 10 nm. The value of ODλ for solutions was assessed at a wavelength chosen for plotting a calibration curve.
The concentration of a substance in the solution after the solubility test was evaluated using a calibration curve. A stock solution in DMSO with a concentration of 2 mg/ml was prepared from a separate sample. […] The range of final concentrations of the calibration curve was 0.2; 0.1; 0.05; 0.025; 0.0125; 0.00625, and 0 mg/ml. Calibration solutions were prepared in a 96-well UV plate as follows: 20 μl of a 10-fold stock solution in DMSO, 60 μl of acetonitrile, and 120 μl of the appropriate buffer were added to the well and stirred. The optical density of the resulting solutions was measured on a multifunction Infinite 200 PRO plate reader in the wavelength range from 240 nm to 400 nm with a step of 10 nm. The optimal wavelength typically corresponding to the absorption maximum was chosen, and a linear dependence of OD at a given wavelength on the concentration of the compound was obtained.
The concentration of the compound in the filtrate after the solubility test was calculated according to the formula:
shake-flask solubility=(ODλfiltrate−ODλblank)/(slope×1.67×filtrate dilution)
wherein slope means the slope of the calibration curve; 1.67 is the filtrate acetonitrile+DMSO dilution ratio; filtrate dilution is an additional dilution of the filtrate, if applicable.

[5] = test system: HIV; assay: EC50 reported in WO 2014/100323; assay type: cell-based; details: A4 vs BIC; A5 vs A6
Text: Specifically, only two inhibitors—A4 and A5—are known to comprise a pyridin-2-ylmethyl moiety instead of a benzyl moiety [WO 2014/100323].

[6] = male, Sprague-Dawley, rat plasma, IV 1 mg/kg
[7] = male, Sprague-Dawley, rat plasma, oral 5 mg/kg

In the case of O=C(NCc1c(F)cc(F)cc1F)c1cn2c(c(O)c1=O)C(=O)N1[C@H]3CC[C@H](C3)O[C@@H]1C2 [BIC, Bictegravir], the EC50 [1] is given as 2.5 nM and the EC50 [2] is given as 1 to 7.5 nM.
C[C@H]1CO[C@@H]2Cn3cc(C(=O)NCc4ccc(F)cc4F)c(=O)c(O)c3C(=O)N12 [CAB, Cabotegravir, reference compound] showed a bioavailability ([3]; male, Sprague-Dawley, plasma, rat, oral 5 mg/kg vs IV 1 mg/kg, F=(AUClast PO/5·AUClast IV)·100) of 8.8%, an AUC(0-inf) [3, 6] of 232 µg·h/mL and an AUC(0-t) [3, 6] of 141 µg·h/mL. It also gave an MRT last [3, 6] of 9.19 h, a half-life [3, 6] of 18.3 h and a Cmax [3, 6] of 17000 ng/mL. It also gave a Tmax [3, 6] of 0.08 h, an AUC(0-inf) [3, 7] of 158 µg·h/mL and an AUC(0-t) [3, 7] of 62.3 µg·h/mL. It also gave an MRT last [3, 7] of 8.05 h, a half-life [3, 7] of 19.1 h and a concentration at 8 h ([3]; male, Sprague-Dawley, rat plasma, oral 5 mg/kg, 8 h, read-out: C8 h) of 4340 ng/mL. The concentration at 24 h ([3]; male, Sprague-Dawley, rat plasma, oral 5 mg/kg, 24 h, read-out: C24 h) was 1840 ng/mL, the Cmax [3, 7] was 5210 ng/mL and the Tmax [3, 7] was 4.67 h. For the same compound, the kel ([3]; rat plasma, IV 1 mg/kg) was 0.04 h⁻¹, the kel ([3]; rat plasma, oral 5 mg/kg) was 0.04 h⁻¹ and the EC50 [2] was 0.25 to 3 nM. The solubility at 24 h ([4]; aqueous buffer, pION universal buffer pH 7.4, 24 h, read-out: Solubility, pH 7.4, value) was 5 µg/mL (≈ 12.3 µM), the “Solubility, water, value” ([4]; deionized water, 24 h) was 8 µg/mL (≈ 19.7 µM) and the solubility at 24 h ([4]; deionized water, water, read-out: Solubility in water) was 8 µg/mL (≈ 19.7 µM).
In the case of O=C(NCc1ncccc1C(F)(F)F)c1cn2c(c(O)c1=O)C(=O)N1[C@@H]3CC[C@@H](C3)O[C@H]1C2 [Compound A4, (2S, 5R, 13aS)-8-hydroxy-7,9-dioxo-N-{[3-(trifluoromethyl)pyridin-2-yl]methyl}-2,3,4,5,7,9,13,13a-octahydro-2,5-methanpyrido[1′, 2′: 4,5]pyrazino[2,1-b][1,3]oxazepine-10-carboxamide], the “Decrease in activity relative to the benzyl analogue (times lower)” value [5] is listed as 13.3 and the EC50 [1] is listed as 33.3 nM.
In the case of O=C(NCc1ncc(F)cc1F)c1cn2c(c(O)c1=O)C(=O)N1[C@H]3CC[C@H](C3)[C@@H]1C2 [Compound A5, (1R, 4S, 12aR)-N-[(3,5-difluoropyridin-2-yl)methyl]-7-hydroxy-6,8-dioxo-1,2,3,4,6,8,12,12a-octahydro-1,4-methanodipyrido [1,2-a: 1′, 2′-d]pyrazine-9-carboxamide], the “Decrease in activity relative to the benzyl analogue (times lower)” value [5] is given as “almost twofold decrease in activity” and the EC50 [1] is given as 17.8 nM.
